Experimental data published in patent publication US11440899B2, “Pyrimidine TBK/IKKe inhibitor compounds and uses thereof” (Merck Patent GmbH, priority 2017, dated 2022).
pIC50: −log10 of the molar value. Structures can show the parent of a compound that is named as a salt.

Experiments:
IKKe = IKKe (Homo sapiens (Human), UniProt Q14164); assay: IKKe Biochemical Assay
Protocol: IKKe Biochemical Assay Test compounds were transferred into Labcyte polypropylene 384 well plates ([…]-25) and diluted to 3 mM using DMSO. 3 mM test compounds were dispensed using Labcyte ECHO dose response module into Greiner 784075 plates (columns 3-12 and 13-22, 10 point 1:4) so that high concentration was 30 uM final. 100 uM of a reference compound (1 uM final high concentration). Backfilling was performed if necessary so that all wells contain 1% DMSO final: add 75 nl DMSO/well into columns 1, 2 and 24 using Labcyte Echo. add 75 nl 1.0 mM staurosporine/well into column 23 using Labcyte Echo (10 uM final) add 4.5 ul enzyme/well using multidrop dispenser add 3 ul substrate/well using multidrop dispenser incubate at 25° C. for 90 min. add 7.5 ul 2× stop buffer read on labchip ez reader II using IKKε. job Raw data files were opened in the Caliper LabChip Reviewer program (Version 3.0.265.0 SP2) and peak assignments were adjusted to reflect “substrate first” with the software's post-run analysis options. A spline-fit baseline was applied using the software's analysis algorithm.

TBK1 = TBK1 (Homo sapiens (Human), UniProt Q9UHD2); assay: TBK Biochemical Assay
Sequence of TBK1 (Q9UHD2 whole entry, species assumed): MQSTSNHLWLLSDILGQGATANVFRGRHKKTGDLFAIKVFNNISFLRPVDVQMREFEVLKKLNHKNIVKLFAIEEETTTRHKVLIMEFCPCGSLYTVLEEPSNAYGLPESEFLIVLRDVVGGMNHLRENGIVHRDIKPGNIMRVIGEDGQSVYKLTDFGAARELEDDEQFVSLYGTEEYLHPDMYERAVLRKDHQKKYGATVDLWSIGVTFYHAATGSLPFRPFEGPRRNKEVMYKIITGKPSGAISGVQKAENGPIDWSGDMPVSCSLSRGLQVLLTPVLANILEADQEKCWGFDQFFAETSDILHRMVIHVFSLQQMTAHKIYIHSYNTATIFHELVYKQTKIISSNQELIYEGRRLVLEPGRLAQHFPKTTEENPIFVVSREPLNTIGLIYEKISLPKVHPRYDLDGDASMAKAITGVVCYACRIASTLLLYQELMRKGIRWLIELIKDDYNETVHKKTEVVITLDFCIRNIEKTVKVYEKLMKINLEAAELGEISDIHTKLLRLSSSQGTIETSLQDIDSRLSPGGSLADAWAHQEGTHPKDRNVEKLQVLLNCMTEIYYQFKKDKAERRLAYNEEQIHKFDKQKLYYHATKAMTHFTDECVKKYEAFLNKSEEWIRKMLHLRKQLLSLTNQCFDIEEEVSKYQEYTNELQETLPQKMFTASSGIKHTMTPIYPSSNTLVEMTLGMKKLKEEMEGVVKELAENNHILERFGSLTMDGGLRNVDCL
Protocol: Example 106: TBK Biochemical Assay Test compounds were transferred into Labcyte polypropylene 384 well plates ([…]-25) and diluted to 3 mM using DMSO. 3 mM test compounds were dispensed using Labcyte ECHO dose response module into Greiner 784075 plates (columns 3-12 and 13-22, 10 point 1:4) so that high concentration was 30 uM final. 100 uM of a reference compound (1 uM final high concentration). Backfilling was performed if necessary so that all wells contain 1% DMSO final: add 75 nl DMSO/well into columns 1, 2 and 24 using Labcyte Echo. add 75 nl 1.0 mM staurosporine/well into column 23 using Labcyte Echo (10 uM final) add 4.5 ul enzyme/well using multidrop dispenser add 3 ul substrate/well using multidrop dispenser incubate at 25° C. in Heidolph incubator for 90 min. add 7.5 ul 2× stop buffer using multidrop dispenser read on labchip ez reader II using TBK1.job Raw data files were opened in the Caliper LabChip Reviewer program (Version 3.0.265.0 SP2) and peak assignments were adjusted to reflect “substrate first” with the software's post-run analysis options. A spline-fit baseline was applied using the software's analysis algorithm.

Sequence of IKKe (Q14164 whole entry, species assumed): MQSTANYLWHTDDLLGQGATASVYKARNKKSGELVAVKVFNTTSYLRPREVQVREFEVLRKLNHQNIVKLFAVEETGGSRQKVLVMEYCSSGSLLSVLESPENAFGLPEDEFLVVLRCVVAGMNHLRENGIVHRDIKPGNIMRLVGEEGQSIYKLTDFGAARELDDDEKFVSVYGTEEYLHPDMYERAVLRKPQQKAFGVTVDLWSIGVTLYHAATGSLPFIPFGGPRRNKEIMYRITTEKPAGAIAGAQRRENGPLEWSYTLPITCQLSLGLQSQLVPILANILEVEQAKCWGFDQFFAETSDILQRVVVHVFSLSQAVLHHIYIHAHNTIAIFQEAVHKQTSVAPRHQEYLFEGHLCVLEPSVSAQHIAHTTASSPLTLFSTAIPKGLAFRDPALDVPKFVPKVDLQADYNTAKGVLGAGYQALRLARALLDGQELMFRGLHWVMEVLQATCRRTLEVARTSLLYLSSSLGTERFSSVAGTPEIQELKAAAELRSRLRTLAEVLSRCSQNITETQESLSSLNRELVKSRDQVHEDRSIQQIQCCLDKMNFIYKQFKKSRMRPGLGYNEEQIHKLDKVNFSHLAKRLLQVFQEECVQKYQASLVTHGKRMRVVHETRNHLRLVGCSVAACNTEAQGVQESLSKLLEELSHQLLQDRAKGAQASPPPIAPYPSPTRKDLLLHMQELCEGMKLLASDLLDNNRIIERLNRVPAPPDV

COc1nc(Nc2cc(-c3ccc(OC4CCOCC4)c(C#N)c3)ncn2)ccc1C(=O)N(C)C [Example 1, 6-([6-[3-cyano-4-(oxan-4-yloxy)phenyl]pyrimidin-4-yl]amino)-2-methoxy-N,N-dimethylpyridine-3-carboxamide]
pIC50 (IKKe): > 7.00 | pIC50 (TBK1): > 7.00

COc1nc(Nc2cc(-c3ccc(OC4CCOCC4)c(C#N)c3)ncn2)ccc1C(=O)N(C)CCO [Example 2, 6-([6-[3-cyano-4-(oxan-4-yloxy)phenyl]pyrimidin-4-yl]amino)-N-(2-hydroxyethyl)-2-methoxy-N-methylpyridine-3-carboxamide]
pIC50 (IKKe): > 7.00 | pIC50 (TBK1): > 7.00

COc1nc(Nc2cc(-c3ccc(OC4CCOCC4)c(C#N)c3)ncn2)ccc1C(=O)N1CC2CC(C1)O2 [Example 3, 5-(6-[[6-methoxy-5-([6-oxa-3-azabicyclo[3.1.1]heptan-3-yl]carbonyl)pyridin-2-yl]amino]pyrimidin-4-yl)-2-(oxan-4-yloxy)benzonitrile]
pIC50 (IKKe): > 7.00 | pIC50 (TBK1): > 7.00

COc1nc(Nc2cc(-c3ccc(OC4CCOCC4)c(C#N)c3)ncn2)ccc1C(=O)NC1C2COCC21 (stereo not shown) [Example 4, 6-([6-[3-cyano-4-(oxan-4-yloxy)phenyl]pyrimidin-4-yl]amino)-2-methoxy-N-[3-oxabicyclo[3.1.0]hexan-6-yl]pyridine-3-carboxamide]
pIC50 (IKKe): > 7.00 | pIC50 (TBK1): > 7.00

COc1nc(Nc2cc(-c3ccc(OC4CCOCC4)c(C#N)c3)ncn2)ccc1C(=O)N1CC2CCC(C1)O2 [Example 5, 5-(6-((5-(8-oxa-3-azabicyclo[3.2.1]octane-3-carbonyl)-6-methoxypyridin-2-yl)amino)pyrimidin-4-yl)-2-((tetrahydro-2H-pyran-4-yl)oxy)benzonitrile]
pIC50 (IKKe): > 7.00 | pIC50 (TBK1): > 7.00

COc1nc(Nc2cc(-c3ccc(OC4CCOCC4)c(C#N)c3)ncn2)ccc1C(=O)N1CC2COCC2C1 (stereo not shown) [Example 6, 5-(6-[[5-([hexahydro-1H-furo[3,4-c]pyrrol-5-yl]carbonyl)-6-methoxypyridin-2-yl]amino]pyrimidin-4-yl)-2-(oxan-4-yloxy)benzonitrile]
pIC50 (IKKe): > 7.00 | pIC50 (TBK1): > 7.00

COc1nc(Nc2cc(-c3ccc(OC4CCOCC4)c(C#N)c3)ncn2)ccc1C(=O)NC1CCN(C)CC1 [Example 7, 6-([6-[3-cyano-4-(oxan-4-yloxy)phenyl]pyrimidin-4-yl]amino)-2-methoxy-N-(1-methylpiperidin-4-yl)pyridine-3-carboxamide hydrochloride]
pIC50 (IKKe): > 7.00 | pIC50 (TBK1): > 7.00

COc1nc(Nc2cc(-c3ccc(OC4CCOCC4)c(C#N)n3)ncn2)ccc1C(=O)N(C)C [Example 8, 6-([6-[6-cyano-5-(oxan-4-yloxy)pyridin-2-yl]pyrimidin-4-yl]amino)-2-methoxy-N,N-dimethylpyridine-3-carboxamide]
pIC50 (IKKe): 5.30 to 6.00 | pIC50 (TBK1): 5.30 to 6.00

COc1nc(Nc2cc(-c3cnc(OC4CCOCC4)c(C#N)c3)ncn2)ccc1C(=O)N(C)C [Example 9, 6-([6-[5-cyano-6-(oxan-4-yloxy)pyridin-3-yl]pyrimidin-4-yl]amino)-2-methoxy-N,N-dimethylpyridine-3-carboxamide hydrochloride]
pIC50 (IKKe): > 7.00 | pIC50 (TBK1): > 7.00

COc1nc(Nc2cc(-c3ccc(OC4CCOCC4)c(C#N)c3)ncn2)ccc1N1CCS(=O)(=O)CC1 [Example 10, 5-(6-[[5-(1,1-dioxo-1λ,4-thiomorpholin-4-yl)-6-methoxypyridin-2-yl]amino]pyrimidin-4-yl)-2-(oxan-4-yloxy)benzonitrile]
pIC50 (IKKe): > 7.00 | pIC50 (TBK1): > 7.00

COc1nc(Nc2cc(-c3ccc(OC4CCOCC4)c(C#N)c3)ncn2)ccc1N(C)CCN(C)C [Example 11, 5-[6-[(5-[[2-(dimethylamino)ethyl](methyl)amino]-6-methoxypyridin-2-yl)amino]pyrimidin-4-yl]-2-(oxan-4-yloxy)benzonitrile]
pIC50 (IKKe): > 7.00 | pIC50 (TBK1): > 7.00

COc1nc(Nc2cc(-c3ccc(OC4CCOCC4)c(C#N)c3)ncn2)ccc1N1CCN(C)CC1 [Example 12, 5-(6-[[6-methoxy-5-(4-methylpiperazin-1-yl)pyridin-2-yl]amino]pyrimidin-4-yl)-2-(oxan-4-yloxy)benzonitrile]
pIC50 (IKKe): > 7.00 | pIC50 (TBK1): > 7.00

COc1nc(Nc2cc(-c3ccc(OC4CCOCC4)c(C#N)c3)ncn2)ccc1N(C)CC(=O)N(C)C [Example 13, 2-[[6-([6-[3-cyano-4-(oxan-4-yloxy)phenyl]pyrimidin-4-yl]amino)-2-methoxypyridin-3-yl](methyl)amino]-N,N-dimethylacetamide]
pIC50 (IKKe): > 7.00 | pIC50 (TBK1): > 7.00

COc1nc(Nc2cc(-c3ccc(OC4CCOCC4)c(C#N)c3)ncn2)ccc1N1CCN(CC(F)F)CC1 [Example 14, 5-[6-([5-[4-(2,2-difluoroethyl)piperazin-1-yl]-6-methoxypyridin-2-yl]amino)pyrimidin-4-yl]-2-(oxan-4-yloxy)benzonitrile]
pIC50 (IKKe): > 7.00 | pIC50 (TBK1): > 7.00

COc1nc(Nc2cc(-c3ccc(OC4CCOCC4)c(C#N)c3)ncn2)ccc1N1C[C@@H](C)O[C@@H](C)C1 [Example 15, 5-[6-([5-[(2R,6S)-2,6-dimethylmorpholin-4-yl]-6-methoxypyridin-2-yl]amino)pyrimidin-4-yl]-2-(oxan-4-yloxy)benzonitrile]
pIC50 (IKKe): > 7.00 | pIC50 (TBK1): > 7.00

COc1nc(Nc2cc(-c3ccc(OC4CCOCC4)c(C#N)c3)ncn2)ccc1N1C[C@@H](C)N(C2COC2)[C@@H](C)C1 [Example 16, 5-[6-([5-[(3R,5S)-3,5-dimethyl-4-(oxetan-3-yl)piperazin-1-yl]-6-methoxypyridin-2-yl]amino)pyrimidin-4-yl]-2-(oxan-4-yloxy)benzonitrile]
pIC50 (IKKe): > 7.00 | pIC50 (TBK1): > 7.00

COc1nc(Nc2cc(-c3ccc(OC4CCOCC4)c(C#N)c3)ncn2)ccc1C1CCNCC1 [Example 17, 5-(6-[[6-methoxy-5-(piperidin-4-yl)pyridin-2-yl]amino]pyrimidin-4-yl)-2-(oxan-4-yloxy)benzonitrile]
pIC50 (IKKe): > 7.00 | pIC50 (TBK1): > 7.00

COc1nc(Nc2cc(-c3ccc(OC4CCOCC4)c(C#N)c3)ncn2)ccc1C1CCN(C)CC1 [Example 18, 5-(6-[[6-methoxy-5-(1-methylpiperidin-4-yl)pyridin-2-yl]amino]pyrimidin-4-yl)-2-(oxan-4-yloxy)benzonitrile]
pIC50 (IKKe): > 7.00 | pIC50 (TBK1): > 7.00

COc1nc(Nc2cc(-c3ccc(OC4CCOCC4)c(C#N)c3)ncn2)ccc1CNC1CCN(C)CC1 [Example 19, 5-[6-[(6-methoxy-5-[[(1-methylpiperidin-4-yl)amino]methyl]pyridin-2-yl)amino]pyrimidin-4-yl]-2-(oxan-4-yloxy)benzonitrile]
pIC50 (IKKe): > 7.00 | pIC50 (TBK1): > 7.00

COc1nc(Nc2cc(-c3ccc(OC4CCOCC4)c(C#N)c3)ncn2)ccc1C1CCN(C)C1 (stereo not shown) [Example 20, 5-(6-[[6-methoxy-5-(1-methylpyrrolidin-3-yl)pyridin-2-yl]amino]pyrimidin-4-yl)-2-(oxan-4-yloxy)benzonitrile]
pIC50 (IKKe): > 7.00 | pIC50 (TBK1): > 7.00

COc1nc(Nc2cc(-c3cc(C#N)c(OC4CCOCC4)cn3)ncn2)ccc1N1CCN(C)CC1 [Example 21, 2-(6-[[6-methoxy-5-(4-methylpiperazin-1-yl)pyridin-2-yl]amino]pyrimidin-4-yl)-5-(oxan-4-yloxy)pyridine-4-carbonitrile]
pIC50 (IKKe): > 7.00 | pIC50 (TBK1): > 7.00

COc1nc(Nc2cc(-c3ccc(OC4CCOCC4)c(C#N)n3)ncn2)ccc1N1CCN(C)CC1 [Example 22, 6-(6-[[6-methoxy-5-(4-methylpiperazin-1-yl)pyridin-2-yl]amino]pyrimidin-4-yl)-3-(oxan-4-yloxy)pyridine-2-carbonitrile]
pIC50 (IKKe): 6.00 to 7.00 | pIC50 (TBK1): 6.00 to 7.00

COc1nc(Nc2cc(-c3cnc(OC4CCOCC4)c(C#N)c3)ncn2)ccc1N1CCN(C)CC1 [Example 23, 5-(6-[[6-methoxy-5-(4-methylpiperazin-1-yl)pyridin-2-yl]amino]pyrimidin-4-yl)-2-(oxan-4-yloxy)pyridine-3-carbonitrile]
pIC50 (IKKe): > 7.00 | pIC50 (TBK1): > 7.00

COc1nc(Nc2cc(-c3cc(C#N)c(OC4CCOCC4)cn3)ncn2)ccc1C1CCN(C)CC1 [Example 24, 2-(6-[[6-methoxy-5-(1-methylpiperidin-4-yl)pyridin-2-yl]amino]pyrimidin-4-yl)-5-(oxan-4-yloxy)pyridine-4-carbonitrile]
pIC50 (IKKe): > 7.00 | pIC50 (TBK1): > 7.00

COc1nc(Nc2cc(-c3ccc(O[C@@H]4CCN(C(=O)CO)CC4(F)F)c(C#N)c3)ncn2)ccc1N1CCN(C)CC1 [Example 61, 2-[[(4R)-3,3-difluoro-1-(2-hydroxyacetyl)piperidin-4-yl]oxy]-5-(6-[[6-methoxy-5-(4-methylpiperazin-1-yl)pyridin-2-yl]amino]pyrimidin-4-yl)benzonitrile]
pIC50 (TBK1): > 7.00
